Legend:
SETVI (green foxtail) = assay: Pre-plant incorporated (PPI) herbicidal activity, cool season; assay type: in vivo, Setaria viridis; settings: for PPI activity GR80, SETVI: pre-plant incorporated, lowest tested rate with 80% or greater inhibition, about 14 days
Experimental: (§1) In another set of tests, the pre-plant incorporated (PPI) activity of compounds of this invention was evaluated on the same species as for the pre-emergence tests described above. In the PPI tests the following procedure, designed to simulate PPI application, was used.
(§2) A pre-prepared topsoil mixture (described above) was placed in a pot and compacted to a depth of 1.0 to 1.25 cm from the top of the pot. Seeds of each of several monocotyledonous and dicotyledonous annual plant species were placed on top of the soil. A sufficient quantity of soil to cover the seeds and level fill the pot was weighed into an open container. A known amount of the test compound was dissolved or suspended in an organic solvent and applied by spraying to this cover soil. The cover soil was thoroughly mixed to distribute the test compound throughout the cover soil, and was then applied as a cover layer over the seeds. Untreated soil was used as a cover layer for control pots. After treatment the plants were placed in a greenhouse where they received 0.64 cm of overhead irrigation. All subsequent watering consisted of a light overhead mist and/or subirrigation as needed for germination and growth. Tables 9 and 10 below relate to warm season plant species which were placed after pre-emergence treatment in a greenhouse with a 30/21° C. day/night temperature regime. Tables 11 and 12 below relates to cool season plant species placed after pre-emergence treatment in a greenhouse or growth chamber with an 18/13° C. day/night temperature regime. Only the compounds of Examples 1, 6, 8, 11, 13 and 15-20 were included in PPI tests.
(§3) Approximately 14 days after planting and treating, the plants were observed and herbicidal efficacy recorded as percent inhibition by comparison with untreated plants.

wheat (TRZAW) = assay: Selectivity test, PPI, cool season crop; assay type: in vivo, Triticum aestivum; settings: PPI application
Experimental: as §2, §3
Additional pre-emergence and PPI tests were conducted by the procedures described above, on warm and cool season weed species in the presence of crop species, to assess herbicidal selectivity. Crop species included in warm season tests were corn (Zea mays, ZEAMX), rice (Oryza sativa, ORYSA) and soybean (Glycine max, GLYMX). Crop species included in cool season tests were wheat (Triticum aestivum, TRZAW), barley (Hordeunm vulgare, HORVX) and oilseed rape (Brassica napus, BRSNS).
Tables 15 and 16 relate to pre-emergence and PPI tests respectively on warm season species. Table 17 relates to pre-emergence tests on cool season species.

AMARE (redroot pigweed) = assay: Pre-plant incorporated (PPI) herbicidal activity, warm season; assay type: in vivo, Amaranthus retroflexus; settings: for PPI activity (GR80) AMARE: pre-plant incorporated, GR80 = lowest tested rate with 80% or greater inhibition, approx. 14 days after treating, 30/21° C.
Experimental: as §1, §2, §3

[1] = system: AGRRE (quackgrass (seedling)); assay: Post-emergence herbicidal activity, cool season; assay type: in vivo, Elymus repens; settings: abraded plants sprayed at 300, 100, 30 and 10 g/ha; about 14 days after treatment
Method in brief: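 Read-out was GR80, derived from percent growth inhibition relative to abraded, unsprayed control plants, observed roughly 14 days after spraying. Compounds in 50:50 acetone/water were applied at 300, 100, 30 and 10 g/ha to seedlings 9 to 14 days old whose foliage had been sand-abraded to aid uptake.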

[2] = system: PANMI (wild proso millet); assay: Pre-plant incorporated (PPI) herbicidal activity, warm season; assay type: in vivo, Panicum miliaceum; settings: for PPI activity GR80, PANMI: pre-plant incorporated, lowest tested rate with 80% or greater inhibition, about 14 days
Experimental: as §1, §2, §3

[3] = Setaria viridis, weed, PPI application, 30 g/ha, read-out: Percent inhibition SETVI
[4] = Setaria viridis, weed, PPI application, 100 g/ha, read-out: Percent inhibition SETVI
[5] = Setaria viridis, weed, PPI application, 300 g/ha, read-out: Percent inhibition SETVI
[6] = Setaria viridis, weed, PPI application, 900 g/ha, read-out: Percent inhibition SETVI
[7] = Triticum aestivum, 30 g/ha, read-out: Percent inhibition TRZAW
[8] = Triticum aestivum, 100 g/ha, read-out: Percent inhibition TRZAW
[9] = Triticum aestivum, 300 g/ha, read-out: Percent inhibition TRZAW
[10] = Triticum aestivum, 900 g/ha, read-out: Percent inhibition TRZAW
[11] = Amaranthus retroflexus, PPI application, 30 g/ha, read-out: Percent inhibition AMARE
[12] = Amaranthus retroflexus, PPI application, 100 g/ha, read-out: Percent inhibition AMARE
[13] = Amaranthus retroflexus, PPI application, 300 g/ha, read-out: Percent inhibition AMARE
[14] = Amaranthus retroflexus, PPI application, 900 g/ha, read-out: Percent inhibition AMARE
[15] = Panicum miliaceum, PPI application, 30 g/ha, read-out: Percent inhibition PANMI
[16] = Panicum miliaceum, PPI application, 100 g/ha, read-out: Percent inhibition PANMI
[17] = Panicum miliaceum, PPI application, 300 g/ha, read-out: Percent inhibition PANMI
[18] = Panicum miliaceum, PPI application, 900 g/ha, read-out: Percent inhibition PANMI
[19] = weed, PPI application, 100 g/ha
[20] = weed, PPI application, 300 g/ha
[21] = weed, PPI application, 900 g/ha

SMILES	PPI activity GR80, SETVI (SETVI (green foxtail)) [g/ha]	PPI activity (GR80) AMARE (AMARE (redroot pigweed)) [g/ha]	Post-emergence activity GR80, AGRRE [1]	PPI activity GR80, PANMI [2]	Percent inhibition SETVI (SETVI (green foxtail); weed, PPI application, 30 g/ha) [%]	Percent inhibition SETVI (SETVI (green foxtail); [19]) [%]	Percent inhibition SETVI (SETVI (green foxtail); [20]) [%]	Percent inhibition SETVI (SETVI (green foxtail); [21]) [%]	Percent inhibition TRZAW (wheat (TRZAW); 30 g/ha) [%]	Percent inhibition TRZAW (wheat (TRZAW); 100 g/ha) [%]	Percent inhibition TRZAW (wheat (TRZAW); 300 g/ha) [%]	Percent inhibition TRZAW (wheat (TRZAW); 900 g/ha) [%]	Percent inhibition AMARE (AMARE (redroot pigweed); PPI application, 30 g/ha) [%]	Percent inhibition AMARE (AMARE (redroot pigweed); PPI application, 100 g/ha) [%]	Percent inhibition AMARE (AMARE (redroot pigweed); PPI application, 300 g/ha) [%]	Percent inhibition AMARE (AMARE (redroot pigweed); PPI application, 900 g/ha) [%]	Percent inhibition PANMI ([2]; PPI application, 30 g/ha) [%]	Percent inhibition PANMI ([2]; PPI application, 100 g/ha) [%]	Percent inhibition PANMI ([2]; PPI application, 300 g/ha) [%]	Percent inhibition PANMI ([2]; PPI application, 900 g/ha) [%]	other results
CCSC(F)(F)S(=O)(=O)c1ncn(C(=O)N(CC)CC)n1 [Example 8, 1-(N,N-diethylcarbamoyl)-3-[difluoro(ethylthio)methylsulfonyl]-1,2,4-triazole]	30	100	[empty]	10 g/ha	–	–	–	–	–	–	–	–	–	–	–	–	–	–	–	–	inhibition at 30 g/ha (SETVI (green foxtail); [3]): 100%; inhibition at 100 g/ha (SETVI (green foxtail); [4]): 100%; inhibition at 300 g/ha (SETVI (green foxtail); [5]): 100%; inhibition at 900 g/ha (SETVI (green foxtail); [6]): 100%; inhibition at 30 g/ha (wheat (TRZAW); [7]): 0%; inhibition at 100 g/ha (wheat (TRZAW); [8]): 0%; inhibition at 300 g/ha (wheat (TRZAW); [9]): 20%; inhibition at 900 g/ha (wheat (TRZAW); [10]): 60%; inhibition at 30 g/ha (AMARE (redroot pigweed); [11]): 100%; inhibition at 100 g/ha (AMARE (redroot pigweed); [12]): 100%; inhibition at 300 g/ha (AMARE (redroot pigweed); [13]): 100%; inhibition at 900 g/ha (AMARE (redroot pigweed); [14]): 100%; inhibition at 30 g/ha [2, 15]: 100%; inhibition at 100 g/ha [2, 16]: 100%; inhibition at 300 g/ha [2, 17]: 100%; inhibition at 900 g/ha [2, 18]: 100%
C=C(Br)CC(F)(F)S(=O)(=O)c1ncn(C(=O)N(CC)CC)n1 [Example 19]	30	100	[empty]	100 g/ha	–	–	–	–	–	–	–	–	–	–	–	–	–	–	–	–	inhibition at 10 g/ha (SETVI (green foxtail); Setaria viridis, weed, PPI application, 10 g/ha, read-out: Percent inhibition SETVI): 50%; inhibition at 30 g/ha (SETVI (green foxtail); [3]): 60%; inhibition at 100 g/ha (SETVI (green foxtail); [4]): 100%; inhibition at 300 g/ha (SETVI (green foxtail); [5]): 100%; inhibition at 900 g/ha (SETVI (green foxtail); [6]): 100%; inhibition at 10 g/ha (wheat (TRZAW); Triticum aestivum, 10 g/ha, read-out: Percent inhibition TRZAW): 0%; inhibition at 30 g/ha (wheat (TRZAW); [7]): 0%; inhibition at 100 g/ha (wheat (TRZAW); [8]): 30%; inhibition at 300 g/ha (wheat (TRZAW); [9]): 70%; inhibition at 900 g/ha (wheat (TRZAW); [10]): 60%; inhibition at 10 g/ha (AMARE (redroot pigweed); Amaranthus retroflexus, PPI application, 10 g/ha, read-out: Percent inhibition AMARE): 0%; inhibition at 30 g/ha (AMARE (redroot pigweed); [11]): 20%; inhibition at 100 g/ha (AMARE (redroot pigweed); [12]): 95%; inhibition at 300 g/ha (AMARE (redroot pigweed); [13]): 95%; inhibition at 900 g/ha (AMARE (redroot pigweed); [14]): 100%; inhibition at 10 g/ha ([2]; Panicum miliaceum, PPI application, 10 g/ha, read-out: Percent inhibition PANMI): 0%; inhibition at 30 g/ha [2, 15]: 60%; inhibition at 100 g/ha [2, 16]: 100%; inhibition at 300 g/ha [2, 17]: 100%; inhibition at 900 g/ha [2, 18]: 100%
C=C(CC(F)(F)S(=O)(=O)c1ncn(C(=O)N(CC)CC)n1)C[Si](C)(C)C [Example 20]	30	300	[empty]	100 g/ha	70	40	100	100	0	0	40	60	0	50	100	100	20	100	65	100	Percent inhibition SETVI (SETVI (green foxtail); weed, PPI application, 10 g/ha): 0%; Percent inhibition TRZAW (wheat (TRZAW); 10 g/ha): 0%; Percent inhibition AMARE (AMARE (redroot pigweed); PPI application, 10 g/ha): 0%; Percent inhibition PANMI ([2]; PPI application, 10 g/ha): 0%
CCN(CC)C(=O)n1cnc(S(=O)(=O)C(F)(F)SCCOC)n1 [Example 13]	100	100	[empty]	100 g/ha	95	100	100	100	0	20	20	30	90	70	100	100	90	70	100	100	Percent inhibition SETVI (SETVI (green foxtail); weed, PPI application, 10 g/ha): 30%; Percent inhibition TRZAW (wheat (TRZAW); 10 g/ha): 0%; Percent inhibition AMARE (AMARE (redroot pigweed); PPI application, 10 g/ha): 0%; Percent inhibition PANMI ([2]; PPI application, 10 g/ha): 100%
CCN(CC)C(=O)n1cnc(S(=O)(=O)C(F)(F)SCC(=O)OC)n1 [Example 11]	300	100	[empty]	* (activity observed, at least at highest rate, but <80% inhibition)	90	99	95	100	0	0	0	20	90	40	95	100	0	20	80	100	Percent inhibition SETVI (SETVI (green foxtail); weed, PPI application, 10 g/ha): 80%; Percent inhibition TRZAW (wheat (TRZAW); 10 g/ha): 0%; Percent inhibition AMARE (AMARE (redroot pigweed); PPI application, 10 g/ha): 0%
CCN(CC)C(=O)n1cnc(S(=O)(=O)C(F)(F)SCc2ccccc2)n1 [Example 10]	–	–	[empty]	–	0	90	100	100	0	0	10	20	0	40	100	100	0	80	99	100	Percent inhibition TRZAW (wheat (TRZAW); 10 g/ha): 0%; Percent inhibition AMARE (AMARE (redroot pigweed); PPI application, 10 g/ha): 0%; Percent inhibition PANMI ([2]; PPI application, 10 g/ha): 0%
CCN(CC)C(=O)n1cnc(S(=O)(=O)C(F)(F)SC)n1 [Example 9]	–	–	[empty]	–	99	100	100	100	0	0	10	70	90	100	100	100	60	80	100	100	–

Reference: patent publication US6461997B1, “Triazole sulfones having herbicidal activity” (Monsanto Technology LLC, priority 1999, dated 2002)
